Assay results: US20120270928A1, “MICRORNA COMPOUNDS AND METHODS FOR MODULATING MIR-21 ACTIVITY” (REGULUS THERAPEUTICS INC., priority 2011, published 2012)
Several values for one entry are separate records, joined by “and”; a condition that tells them apart may be missing. Equal entries are not always repeated.

Columns and labels:
[1] = test system: UUO model of kidney fibrosis; assay: UUO model: collagen area fraction of kidney tissue (picrosirius red histology); type: in vivo, mice; conditions: Table N, 25070 20 mg/kg s.c.
Procedure: Control treatment groups included UUO only (sham) and UUO with PBS administered subcutaneously. An additional control group included UUO with Tween-MC/20 carrier perorally. 25070 administered subcutaneously at dose of 20 mg/kg at 5 days prior to, 2 days prior to, and 3 days after, the UUO procedure. Irbesartan was administered perorally on daily on days 0 through 7 following the UUO procedure. Animals were sacrificed on Day 10 following the UUO procedure. Kidney tissue was collected for measurement of collagen 1A1 and collagen 3A1 expression.
The ‘collagen area fraction’ is measured histologically through quantitative image processing of the area of kidney tissue that is stained red by the picrosirius red stain; the percent detected as red is normalized by the area of kidney section.

[2] = test system: ischemia reperfusion injury/nephrectomy (IR/Nx) model; assay: Ischemia reperfusion injury/nephrectomy (IR/Nx) model: urinary albumin to creatinine ratio; type: in vivo, mouse
From the text: An ischemia reperfusion injury/nephrectomy (IR/Nx) model is created in the mouse through temporary unilateral clamping of an artery in one kidney, which leads to tubule damage, inflammation, and fibrosis, followed by removal of the second kidney at a later timepoint. In this model, the acute kidney dysfunction phase is useful to test candidate agents for the treatment of acute kidney injury (i.e. up to about the first 5 days), and the later phases of kidney dysfunction are useful to model chronic fibrosis (i.e. after about the first 5 days).
Unilateral IR was induced for a period of 30 minutes. Treatment groups were as follows: sham IR procedure; IR with PBS administered subcutaneously; IR with mismatched control 25109 administered subcutaneously at a dose of 20 mg/kg; IR with anti-miR-21 compound 25070 administered subcutaneously at a dose of 20 mg/kg; and IR with anti-miR-21 compound 25923 administered subcutaneously at a dose of 20 mg/kg. PBS or anti-miR was administered on days 2, 3, 4, and 8 following IR. On day 8, the healthy kidney was removed by nephrectomy from each animal, and animals were sacrificed on day 9. Just prior to sacrifice, urine was collected by direct bladder puncture.
Urinary albumin to creatinine ratio was measured in the urine from each mouse. […] The geometric mean of the albumin to creatinine ratio in each group of mice was 16 μgAlb/mgCr (nephrectomy-only control), 127 μgAlb/mgCr (IR/Nx, PBS control), 140 μgAlb/mgCr (IR/Nx, 25109 control), 40 μgAlb/mgCr (IR/Nx, 25070), and 31 μgAlb/mgCr (IR/Nx, 25923). Blood urea nitrogen and serum creatinine levels were similar across all IR/Nx mice, and were elevated relative to nephrectomy-only control mice (data not shown).

AECSATCSAGTCSTGAUSAAGCSTAE (ACATCAGTCTGATAAGCTA; modified nucleosides, phosphorothioate linkages, chemistry not fully specified) [Compound 25070]
Collagen Area Fraction (%) Mean ([1]; group mean, irbesartan PO, Day 10, UUO-PBS 11.1, Tween/MC vehicle 8.0): 8.0%
Collagen Area Fraction (%) ([1]; individual animals, irbesartan PO daily days 0-7, Day 10, picrosirius red, 20 mg/kg): 7.632% and 9.937% and 8.015% and 6.611% and 6.319% and 11.272% and 6.803% and 7.405%
reduction in urinary albumin to creatinine ratio (significance) ([2]; 20 mg/kg subcutaneously on days 2, 3, 4, and 8): statistically significant reductions
geometric mean of the urinary albumin to creatinine ratio ([2]; 20 mg/kg subcutaneously on days 2, 3, 4, and 8, urine on day 9): 40 μgAlb/mgCr
